Test results taken from patent publication US4021552A, “10-[ω-(BENZOYLPIPERIDINYL)ALKYL]PHENOTHIAZINES” (A. H. Robins Company, Incorporated, priority 1976, dated 1977).
Counter-ions that a name gives are not always drawn. Like-named read-outs stand apart in the source and are kept apart here.

How the values were obtained:
[1] = acute toxicity (72 hour LD50) in mice; settings: mouse, in vivo, IP, read-out: 72 hour LD50 (95% Confidence Limits)
[2] = tested on: d-amphetamine lethality in mice; assay: block of lethal effects of d-amphetamine in aggregated mice (modified procedure of Burn and Hobbs); assay type: in vivo; settings: Mus musculus
Text: Intern. Pharmacodyn. 113: 290 (1958).
Effects of different pretreatment time intervals
on d-amphetamine lethality in mice

[3] = IP, mice, 1 hr. pretreatment, read-out: Protective ED50 (95% confidence limits)
[4] = IP, mice, 4 hrs. pretreatment, read-out: Protective ED50 (95% confidence limits)
[5] = IP, mice, 8 hrs. pretreatment, read-out: Protective ED50 (95% confidence limits)
[6] = IP, mice, 16 hrs. pretreatment, read-out: Protective ED50 (95% confidence limits)

Structure (SMILES) | LD50 at 72 h [1] [mg/kg] | ED50 [2, 3] [mg/kg] | ED50 [2, 4] [mg/kg] | ED50 [2, 5] [mg/kg] | ED50 [2, 6] [mg/kg] | ED50 ([2]; ip, running text: administered I.P. in mice, after 16 hours, read-out: ED50) [mg/kg]
O=C(c1ccc(F)cc1)C1CCN(CCCN2c3ccccc3Sc3ccc(C(F)(F)F)cc32)CC1 [Example 4, 2-Trifluoromethyl-10-[3-(4-p-fluorobenzoylpiperidinyl)propyl]phenothiazineFumarate] | 317 | 1.44 | 3.5 | 1.4 | 1.89 | –
O=C(c1ccc(F)cc1)C1CCN(CCCN2c3ccccc3Sc3ccc(Cl)cc32)CC1 [Example 7, 2-Chloro-10-[3-(4-p-fluorobenzoylpiperidinyl)propyl] phenothiazine Hydrochloride Hydrate (1:4)] | 248 | 0.17 | 0.53 | 0.19 | 0.72 | 0.72
O=C(c1ccc(F)cc1)C1CCN(CCCN2c3ccccc3Sc3ccccc32)CC1 [Example 1, 10-[3-(4-p-Fluorobenzoylpiperidinyl)propyl]phenothiazine Fumarate Hydrate (1:4)] | 330 | 0.94 | 0.35 | 1.27 | 12.1 | –
CC(=O)c1ccc2c(c1)N(CCCN1CCC(C(=O)c3ccc(F)cc3)CC1)c1ccccc1S2 [Example 6, 2-Acetyl-10-[3-(4-p-fluorobenzoylpiperidiny)propyl] phenothiazine Difumarate Sesquihydrate] | 287 | 0.14 | 0.1 | 0.06 | 0.76 | –
